# Experiments:
# [1] = tested on: HIV-1 gag/pol −1 frameshift signal sequence (HIV-1 frameshift construct); test: Stably transfected dual fluorescent reporter recoding assay in Flp-In CV1 cells (−1 frame construct); type: cell-based; settings: for DsRed/EGFP ratio / Percentage decrease in ratio / Minus 1 Frameshift Construct EGFP signal, Average / Minus 1 Frameshift Construct DsRed signal, Average: 120 hours; for DsRed/EGFP ratio / Percentage decrease in ratio: stable Flp-In CV1 cells; for DsRed/EGFP ratio: not normalised to Null 0, expressed as a percentage; for Percentage decrease in ratio: vs no drug; for Minus 1 Frameshift Construct EGFP signal, Average: 485 excitation 515 emission; for Minus 1 Frameshift Construct DsRed signal, Average: 535 excitation 590 emission
# Method: The translational recoding construct described above was excised via Hind III and Not I restrictions sites and ligated into a Flp-In™ pcDNA5/FRT expression vector (Invitrogen Life Technologies) before being stably transformed into Flp-In™ CV1 cells (Invitrogen Life Technologies) according to the manufacturer's instructions.
# Flp-In CV1 cells (CV1 cells), as described in Example 2, transfected with the −1 frame construct, and untransfected CV1 cells were grown, harvested, trypsinised, washed and diluted to 1×10^5 cells/ml all under standard conditions.
# Cells were then seeded in 96 well plates under standard conditions. The plates were then incubated for 120 hours at 37° C.
# (§1) The cells were washed 3 times with Phosphate Buffered Saline (PBS) to remove any traces of culture medium. 100 ul of Passive Lysis buffer (Promega) was added. The cells were frozen. The frozen cells were then thawed and fluorescence intensity was read in the Tecan Genios Pro plate reader.
# Plate reader setting were as follows:
# Filters 485 excitation, 515 emission
# Filters 535 excitation, 590 emission
# As a Null 0 frameshift construct was not used in this experiment ratios of the DsRed to EGFP signal were calculated to take into account the decrease in the EGFP signal with increasing drug concentrations.
# The calculation was similar to example 3, with the counts averaged, the control cell counts removed before working out the ratio of the DsRed signal to the EGFP signal. Normalisation using a Null 0 frame construct could not be performed, with the results below being expressed as a percentage. The calculation was a follows: [[DsRed signal: HIV-1 frameshift construct]/[EGFP signal: HIV-1 frameshift construct]]
# [2] = tested on: HIV-1 gag/pol −1 frameshift signal sequence (HIV-1 frameshift construct); test: Dual fluorescent reporter (EGFP/DsRed) recoding assay in transiently transfected COS-7 cells, with Null 0 control construct; type: cell-based; settings: for Minus 1 Frameshift Construct EGFP signal, Average / Null 0 Frameshift Construct EGFP signal, Average: 485 excitation 520-P emission; for Minus 1 Frameshift Construct DsRed signal, Average / Null 0 Frameshift Construct DsRed signal, Average: 525 excitation 600LP emission
# Method: Mammalian COS-7 cells were grown, harvested, trypsinised, washed and diluted to 1×10^5 cells/ml all under standard conditions.
# The diluted cells were then split into two equal portions. One portion was transiently transfected with the recoding construct, and other with the Null 0 frame control construct. Transient transfection was performed using 2 μL of FuGENE® 6 transfection reagent (Roche) and 500 ng of DNA for every mL of cells, in accordance with the manufacturing instructions.
# Transfected cells were seeded in 24 well plates under standard conditions. Cycloheximide was added in triplicate at 50 nM and the plates were then incubated for 48 hours at 37° C.
# as §1, with “and transferred to a 96 well plate, and” for “and”, “BMG PolarStar” for “Tecan Genios Pro”
# Plate reader settings were as follows:
# Filters 485 excitation, 520-P emission
# Filters 544 excitation, 590 emission
# [[DsRed signal: HIV-1 frameshift construct]/[EGFP signal: HIV-1 frameshift construct]]/[[DsRed signal: Null 0 frameshift construct]/[EGFP signal: Null 0 frameshift construct]]
# The diluted cells were then split into two equal portions. One portion was transfected, as described in Example 3, with the recoding construct, and other with the Null 0 frame control construct.
# Cells were then seeded in 24 well plates under standard conditions. Anisomycin was added in triplicate at 50 nM and the plates were then incubated for 48 hours at 37° C.
# The cells were prepared as described in examples 3 and 4.
# DsRed signal at 525 excitation, 600LP emission
# EGFP signal at 485 excitation, 520-P emission
# Frameshift figures, shown in Table 5, were calculated using the formula shown in Example 3 using data from Tables 1, 2, 3 and 4.
# Transfected cells were prepared as described in Example 5, and treated with 0 nM (no drug) 100 nM, 200 nM, 300 nM, 400 nM and 500 nM concentrations of anisomycin.
# Incubation, plate reader setting and readings were as described in Example 5.
# For the anisomycin titrations, the frameshift figures, shown in Table 10, were calculated using the formula shown in Example 3 using data from Tables 6, 7, 8 and 9.
# [3] = 50 nM, 48 hours, 485 excitation, 520-P emission
# [4] = 50 nM, 48 hours, 544 excitation, 590 emission
# [5] = 100 nM, COS-7, 525/600LP filters, vs no drugs
smiles,measurement,setting,value
COc1ccc(C[C@H]2NC[C@H](O)[C@H]2OC(C)=O)cc1 [Anisomycin],DsRed/EGFP ratio,[1]; 50 nM,7.81%
same,Percentage decrease in ratio,[1]; 50 nM,−1.47%
same,"Minus 1 Frameshift Construct EGFP signal, Average",[1]; 50 nM,12588
same,"Minus 1 Frameshift Construct DsRed signal, Average",[1]; 50 nM,1348
same,DsRed/EGFP ratio,[1]; 100 nM,7.60%
same,Percentage decrease in ratio,[1]; 100 nM,1.17%
same,"Minus 1 Frameshift Construct EGFP signal, Average",[1]; 100 nM,12188
same,"Minus 1 Frameshift Construct DsRed signal, Average",[1]; 100 nM,1301
same,DsRed/EGFP ratio,[1]; 500 nM,1.44%
same,Percentage decrease in ratio,[1]; 500 nM,81.34%
same,"Minus 1 Frameshift Construct EGFP signal, Average",[1]; 500 nM,8977
same,"Minus 1 Frameshift Construct DsRed signal, Average",[1]; 500 nM,795
same,DsRed/EGFP ratio,[1]; 1000 nM,−0.81%
same,Percentage decrease in ratio,[1]; 1000 nM,110.53%
same,"Minus 1 Frameshift Construct EGFP signal, Average",[1]; 1000 nM,8386
same,"Minus 1 Frameshift Construct DsRed signal, Average",[1]; 1000 nM,704
same,DsRed/EGFP ratio,[1]; 2000 nM,−3.13%
same,Percentage decrease in ratio,[1]; 2000 nM,140.70%
same,"Minus 1 Frameshift Construct EGFP signal, Average",[1]; 2000 nM,7681
same,"Minus 1 Frameshift Construct DsRed signal, Average",[1]; 2000 nM,641
same,% decrease in ratio over concentration range,"[1]; range between 50 nM and 2000 nM, stable cells, result in words",dose responsive effect
same,decrease in frameshift from the original (no drug) value,"[2]; 50 nM, 48 hours, COS-7, 544/590 filters",5.3%
same,Frameshift,"[2]; 50 nM, 48 hours, COS-7, DsRed 544 excitation/590 emission, EGFP 485/520-P, normalised to Null 0 construct",5.64%
same,absolute change frameshift efficiency,"[2]; 50 nM, 48 hours, COS-7, vs no drug control, 544/590 filters",0.32%
same,"EGFP signal, HIV-1 frameshift construct, average",[2]; [3],32666 RFU
same,"EGFP signal, HIV-1 frameshift construct, average minus control",[2]; [3],32336 RFU
same,"EGFP signal, Null 0 frameshift construct, average",[2]; [3],56491 RFU
same,"EGFP signal, Null 0 frameshift construct, average minus control",[2]; [3],56161 RFU
same,"DsRed signal, HIV-1 frameshift construct, average",[2]; [4],1975 RFU
same,"DsRed signal, HIV-1 frameshift construct, average minus control",[2]; [4],1891 RFU
same,"DsRed signal, Null 0 frameshift construct, average",[2]; [4],58293 RFU
same,"DsRed signal, Null 0 frameshift construct, average minus control",[2]; [4],58209 RFU
same,"Minus 1 Frameshift Construct EGFP signal, Average",[2]; 100 nM,31923
same,"Null 0 Frameshift Construct EGFP signal, Average",[2]; 100 nM,55732
same,"Minus 1 Frameshift Construct DsRed signal, Average",[2]; 100 nM,3072
same,"Null 0 Frameshift Construct DsRed signal, Average",[2]; 100 nM,55345
same,Percentage decrease in frameshift,[2]; [5],1.39%
same,absolute change in frameshift efficiency,[2]; [5],0.11%
same,Percentage decrease in frameshift,"[2]; 100 nM, COS-7, 525/600LP filters, vs no drugs, listed as anisomycin",1.4%
same,Frameshift,"[2]; 100 nM, COS-7, DsRed 525 excitation/600LP emission",7.89%
same,Frameshift,"[2]; 100 nM, COS-7, DsRed 525 excitation/600LP emission, listed as anisomycin",7.88%
same,"Minus 1 Frameshift Construct EGFP signal, Average",[2]; 200 nM,37862
same,"Null 0 Frameshift Construct EGFP signal, Average",[2]; 200 nM,51856
same,"Minus 1 Frameshift Construct DsRed signal, Average",[2]; 200 nM,3555
same,"Null 0 Frameshift Construct DsRed signal, Average",[2]; 200 nM,50020
same,Percentage decrease in frameshift,"[2]; 200 nM, COS-7, 525/600LP filters, vs no drugs",−2.21%
same,Frameshift,"[2]; 200 nM, COS-7, DsRed 525 excitation/600LP emission",8.17%
same,"Minus 1 Frameshift Construct EGFP signal, Average",[2]; 300 nM,32560
same,"Null 0 Frameshift Construct EGFP signal, Average",[2]; 300 nM,38929
same,"Minus 1 Frameshift Construct DsRed signal, Average",[2]; 300 nM,2995
same,"Null 0 Frameshift Construct DsRed signal, Average",[2]; 300 nM,36774
same,Percentage decrease in frameshift,"[2]; 300 nM, COS-7, 525/600LP filters, vs no drugs",1.47%
same,Frameshift,"[2]; 300 nM, COS-7, DsRed 525 excitation/600LP emission",7.88%
same,"Minus 1 Frameshift Construct EGFP signal, Average",[2]; 400 nM,18630
same,"Null 0 Frameshift Construct EGFP signal, Average",[2]; 400 nM,18532
same,"Minus 1 Frameshift Construct DsRed signal, Average",[2]; 400 nM,1804
same,"Null 0 Frameshift Construct DsRed signal, Average",[2]; 400 nM,16734
same,Percentage decrease in frameshift,"[2]; 400 nM, COS-7, 525/600LP filters, vs no drugs",8.53%
same,Frameshift,"[2]; 400 nM, COS-7, DsRed 525 excitation/600LP emission",7.32%
same,"Minus 1 Frameshift Construct EGFP signal, Average",[2]; 500 nM,9376
same,"Null 0 Frameshift Construct EGFP signal, Average",[2]; 500 nM,8119
same,"Minus 1 Frameshift Construct DsRed signal, Average",[2]; 500 nM,1121
same,"Null 0 Frameshift Construct DsRed signal, Average",[2]; 500 nM,7045
same,Percentage decrease in frameshift,"[2]; 500 nM, COS-7, 525/600LP filters, vs no drugs",16.21%
same,Frameshift,"[2]; 500 nM, COS-7, DsRed 525 excitation/600LP emission",6.70%
same,effect on −1 frameshifting,[2]; result in words,antagonists to −1 frameshifting
